According to patent US20230348538A1, “METHOD FOR TREATMENT OF DRY EYE COMPRISNG APPLYING P55PIK INHIBITOR” (Wuhan Yicheng Biological Technology Co., Ltd., priority 2020, published 2023):

Legend:
[1] = tested on: rat model of dry eye induced by corneal epithelial injury; test: Rat model of dry eye induced by corneal epithelial injury: corneal epithelial injury score (sodium fluorescein, slit lamp); assay type: in vivo, SD rats
Procedure: Grouping and administration: the eighteen rats were then randomly divided into three groups, with 6 laboratory rats in each group (male and female in equal numbers); Group 1 was the blank control group and received no treatment; Group 2 was the solvent control group and was treated with solvent eye drops that contained a solvent but no TAT-N16 peptide; Group 3 was the drug treatment group and was treated with eye drops comprising 0.1% TAT-N16 peptide; the eye drops were administered four times a day (1 drop/time) for 7 days; the corneal epithelial injury was evaluated on days 0, 4 and 7 after treatment.
Detection method and scoring criteria: corneal staining was performed by injecting 1 drop pf sodium fluorescein into the conjunctival sac using the 5 mL sterile syringe with the […] needle; the corneal epithelium was observed under the blue light from the slit lamp after 5 minutes; and the scoring criteria were shown in Table 1.

[2] = tested on: dry eye model induced by 0.2% benzalkonium chloride solution; test: Benzalkonium chloride dry eye model: corneal fluorescein sodium staining score; assay type: in vivo, C57BL/6 mice; settings: for Corneal fluorescein staining scores (x ± s): total score of 16 points
Procedure: The healthy male C57BL/6 mice were kept in a controlled environment with a temperature of (25±1)° C., a relative humidity of (25±5)%, and light-dark cycles (9 AM-9 PM) with simulated dawn and dusk. Forty mice (80 eyes) were treated with 5 μL of 0.2% benzalkonium chloride solution twice a day (8:00 AM and 6:00 PM) for 14 days to induce dry eye symptoms, while the remaining ten mice (20 eyes) received no treatment and served as a baseline control. Modeling was carried out on the 15th day; and the dry eye rat models were screened based on tear film break-up time (BUT), fluorescein sodium staining of corneal, and Schirmer's test I for tear secretion. Fluorescein sodium staining was carried out to determine if there any epithelial damage in the corneal of mice; one drop of 1% fluorescein sodium solution was instilled into the conjunctival sac of the mouse eyes; after 1 minute, the corneal epithelial stained by fluorescein sodium was observed under the cobalt blue filter on the slit lamp. Scoring criteria: the cornea was divided into 4 quadrants; and a scoring system was used to assess the staining; each quadrant was given a score ranging from 0 to 4 points, with a total score of 16 points. A score of 0 indicated no staining; 1 point represented less than 30 punctate staining spots; 2 points represented more than 30 punctate staining spots but not diffuse; 3 points represented obviously diffuse staining but no patchy staining; 4 points represented patchy staining. […] Group A, the drug treatment group, was treated with the eye drops comprising 0.1% TAT-[…] peptide, four times a day; Group B, the solvent control group, was treated with eye drops without TAT-[…] peptide, four times a day; and Group C, the blank control group, received no treatment; on days 1, 4, and 7 after treatment, BUT, Schirmer's test I, and fluorescein sodium staining were performed; on the 7th day, the paraffin sections of the conjunctival fornix was stained by PAS stain; and the number of PAS-positive goblet cells was counted.

[3] = tested on: rabbit model of dry eye (0.1% benzalkonium chloride); test: Rabbit model of dry eye: conjunctiva appearance and fluorescein staining; assay type: in vivo, New Zealand white rabbits
Procedure: 1.2.1 Grouping: thirty New Zealand white rabbits were randomly divided into three groups, each comprising 10 rabbits: a blank control group, a solvent control group, and a drug treatment group.
1.2.2 Preparation of a rabbit model of dry eye: the right eye of each rabbit was used to establish a dry eye rabbit model by administering 0.1% benzalkonium chloride eye drops twice a day for 4 weeks. After 4 weeks, the dry eye rabbit model was evaluated, with the conjunctiva appearing dry, tear production being reduced, and Schirmer test values being less than 10 mm/5 min (compared to the control group, where all Schirmer test values were above 10 mm).
1.2.3 Drug preparation and usage: a liquid formulation of 0.1% TAT-N16 peptide eye drops were prepared by dissolving the peptide raw materials in physiological saline according to a weight ratio of 0.1%. The eye drops comprising 0.1% TAT-N16 peptide were administered 2 drops, 3 times a day for 7 days. The blank control group received no treatment, and the solvent control group received physiological saline eye drops 2 drops, 3 times a day for 7 days. The normal eye group served as a normal control group.
1.3 Specimen collection and animal testing were conducted by the same individual. The examination time, location, illumination brightness, and temperature were consistent throughout the experiment. The rabbit conjunctiva appearance, fluorescein staining, tear film break-up time were analyzed using a slit lamp before and on days 4 and 7 after treatment; additionally, the Schirmer's test and conjunctival impression cytology (CIC) were carried out.

[4] = tested on: rat model of dry eye caused by low tear secretion; test: Rat model of dry eye caused by low tear secretion (atropine): lacrimal secretion test (Schirmer's test II); assay type: in vivo, SD rats
Procedure: 1.2.2 Modeling: a rat model of dry eye caused by low tear secretion, was established using the Burgalassi method of atropine injection into the lacrimal glands; eighteen laboratory rats, with equal numbers of male and female, were given 0.4% oxybucaine hydrochloride eye drops in both eyes and injected with 0.25 mL of 0.5 mg/mL atropine into the lacrimal glands four times a day for both eyes; the results of lacrimal secretion test were recorded 0.5 hours after the atropine injection every day; and the atropine injection was continued until the 7th day.
Grouping and administration: six laboratory rats, with equal numbers of male and female, were used as the normal control group and were not modeled; the eighteen successfully modeled laboratory rats were randomly divided into three model groups, with 6 rats in each model group, half male and half female; Model group 1 was the blank control group and received no treatment; Model group 2 was the solvent control group and treated with solvent eye drops that contained a solvent but no TAT-N16 peptide; Model group 3 was the drug treatment group and was treated with eye drops comprising 0.1% TAT-N16 peptide; the eye drops was administered four times a day (1 drop/time) for 7 days; the amount of the lacrimal secretion of each eye was recorded on days 0, 4 and 7 after treatment; the expression levels of P55PIK gene and p55PIK protein in the rat eyes of the normal control group and the model groups were detected.
1.2.2.1 Lacrimal secretion test (Schirmer's test II): due to the smaller eyeballs of SD rats compared to human, the Schirmer tear test strips designed for human use were not suitable for use in the SD rats; therefore, the Schirmer's test II was conducted by cutting a 5 mm x 35 mm Schirmer tear test strip into two strips of 2.5 mm×35 mm each, folding the front end, and lightly placing the Schirmer tear test strip at the junction of the posterior-middle ⅓ of the lower eyelid; after 5 minutes, the Schirmer tear test strips were removed; and the length of the Schirmer tear test strips wetted by tears were measured for 2 minutes and the measurement was repeated three times to obtain an average value; the results were recorded before the treatment, and on the 4th and 7th day after treatment.

[5] = after 4 days of treatment, 0.1% eye drops four times a day
[6] = after 7 days of treatment, 0.1% eye drops four times a day
[7] = before treatment (baseline), drug treatment group, 0.1% eye drops

TAT-N16 peptide: cell-penetrating artificial peptide, sequence SEQ ID NO: 2, constructed by linking the peptide N16 to a TAT sequence; P55PIK inhibitor (YGRKKRRQRRRMMPYSTELIFYIEMDP)
Corneal epithelial injury score compared with blank control group or solvent control group ([1]; 4 days of treatment, P>0.05): no statistically significant difference
Corneal epithelial injury score compared with blank control group or solvent control group ([1]; 7 days of treatment, P<0.05): significantly lower
Corneal epithelial injury scores (x ± s, n = 6) [1, 5]: 3.08 ± 1.43
Corneal epithelial injury scores (x ± s, n = 6) [1, 6]: 0.84 ± 0.96
Corneal epithelial injury scores (x ± s, n = 6) [1, 7]: 4.81 ± 1.61
Corneal fluorescein staining scores (x ± s) ([2]; 0 d (baseline), drug treatment group, 0.1% eye drops): 8.29 ± 1.31
Corneal fluorescein staining score compared with blank control group, model control group and solvent control group ([2]; 4th day of treatment): significantly lower
Corneal fluorescein staining scores (x ± s) ([2]; 4 d, 0.1% eye drops four times a day): 4.12 ± 0.81
Corneal fluorescein staining scores (x ± s) ([2]; 7 d, 0.1% eye drops four times a day): 2.79 ± 1.25
Corneal fluorescein staining score compared with blank control group, model control group and solvent control group ([2]; 7 days of continuous treatment, P<0.05): significantly lower
Appearance of the rabbit conjunctiva ([3]; after 4 days of treatment): improved
Dot-like and patchy fluorescein staining on the conjunctiva ([3]; after 4 days of treatment): decreased
Appearance of the rabbit conjunctiva ([3]; after 7 days of treatment): appeared moist
Fluorescein staining on the conjunctiva ([3]; after 7 days of treatment): no staining was observed
Tear secretion compared with the control groups ([4]; 4th and 7th day of treatment, P<0.05): significantly higher
Schirmer's test II values (x ± s, n = 6) [4, 5]: 5.74 ± 1.59 mm
Schirmer's test II values (x ± s, n = 6) [4, 6]: 8.58 ± 1.73 mm
Schirmer's test II values (x ± s, n = 6) [4, 7]: 3.29 ± 1.34 mm
